Data as given in patent publication US12215140B2, “Method of stabilizing protein contained in specimen and solution for stabilizing protein contained in specimen” (EIKEN KAGAKU KABUSHIKI KAISHA, priority 2018, dated 2025).

Target: hemoglobin (Homo sapiens, UniProt P68871+P69905)
Experiment: Stability of hemoglobin in samples preserved at 37° C. in preservation solution containing no haptoglobin, Hb measured by latex agglutination method (Examples 8, 9 and Table 10)
Conditions: for Hb concentration / Recovery ratio with respect to Hb after 0 days: no phenylboronic acid, sugar 100 mmol/L; for recovery ratio of hemoglobin in the sample: sugar further added to phenylboronic acid 0.5 mmol/L, no haptoglobin, Feces 1, Feces 2, Feces 3
How it was run: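 Latex agglutination gave Hb concentration after storage at 37 °C for up to 62 h. Preservation solution (HEPES 40 mmol/L pH 6.8, BSA, NaN3, no haptoglobin) contained 0–2.5 mmol/L phenylboronic acid, some with added sugars (10–250 mmol/L). Samples held about 300 μg/L Hb, with or without 0.5% feces.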

Sequence of hemoglobin (P69905 2-142): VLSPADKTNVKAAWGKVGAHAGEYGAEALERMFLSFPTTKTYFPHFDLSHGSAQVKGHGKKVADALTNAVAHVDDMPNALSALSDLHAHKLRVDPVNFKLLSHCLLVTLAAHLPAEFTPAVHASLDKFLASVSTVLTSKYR
Sequence of hemoglobin (P68871 2-147): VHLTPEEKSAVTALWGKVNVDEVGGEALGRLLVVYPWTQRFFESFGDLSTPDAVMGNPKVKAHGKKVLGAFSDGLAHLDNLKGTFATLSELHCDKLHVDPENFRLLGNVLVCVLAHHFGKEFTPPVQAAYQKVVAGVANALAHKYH

Row | Compound | Hb concentration (Feces 1, 0 h at 37° C.) [µg/L] | Recovery ratio with respect to Hb after 0 days (Feces 1, 0 h at 37° C.) [%] | Hb concentration (Feces 1, 16 h at 37° C.) [µg/L] | Recovery ratio with respect to Hb after 0 days (Feces 1, 16 h at 37° C.) [%] | Hb concentration (Feces 1, 38 h at 37° C.) [µg/L] | Recovery ratio with respect to Hb after 0 days (Feces 1, 38 h at 37° C.) [%] | Hb concentration (Feces 1, 62 h at 37° C.) [µg/L] | Recovery ratio with respect to Hb after 0 days (Feces 1, 62 h at 37° C.) [%] | Hb concentration (Feces 2, 0 h at 37° C.) [µg/L] | Recovery ratio with respect to Hb after 0 days (Feces 2, 0 h at 37° C.) [%] | Hb concentration (Feces 2, 16 h at 37° C.) [µg/L] | Recovery ratio with respect to Hb after 0 days (Feces 2, 16 h at 37° C.) [%] | Hb concentration (Feces 2, 38 h at 37° C.) [µg/L] | Recovery ratio with respect to Hb after 0 days (Feces 2, 38 h at 37° C.) [%] | Hb concentration (Feces 2, 62 h at 37° C.) [µg/L] | Recovery ratio with respect to Hb after 0 days (Feces 2, 62 h at 37° C.) [%] | Hb concentration (Feces 3, 0 h at 37° C.) [µg/L] | Recovery ratio with respect to Hb after 0 days (Feces 3, 0 h at 37° C.) [%] | Hb concentration (Feces 3, 16 h at 37° C.) [µg/L] | Recovery ratio with respect to Hb after 0 days (Feces 3, 16 h at 37° C.) [%] | further results
1 | OC[C@H]1O[C@@](CO)(O[C@H]2O[C@H](CO)[C@@H](O)[C@H](O)[C@H]2O)[C@@H](O)[C@@H]1O [Sucrose, sucrose] | 271 | 100 | 137 | 51 | 45 | 16 | 10 | 4 | 255 | 100 | 57 | 22 | 3 | 1 | 0 | 0 | 257 | 100 | 67 | 26 | Hb concentration (Feces 3, 38 h at 37° C.): 0 µg/L; Recovery ratio with respect to Hb after 0 days (Feces 3, 38 h at 37° C.): 0%; Hb concentration (Feces 3, 62 h at 37° C.): 0 µg/L; Recovery ratio with respect to Hb after 0 days (Feces 3, 62 h at 37° C.): 0%; Hb concentration (No feces, 0 h at 37° C.): 278 µg/L; Recovery ratio with respect to Hb after 0 days (No feces, 0 h at 37° C.): 100%; Hb concentration (No feces, 16 h at 37° C.): 245 µg/L; Recovery ratio with respect to Hb after 0 days (No feces, 16 h at 37° C.): 88%; Hb concentration (No feces, 38 h at 37° C.): 229 µg/L; Recovery ratio with respect to Hb after 0 days (No feces, 38 h at 37° C.): 83%; Hb concentration (No feces, 62 h at 37° C.): 224 µg/L; Recovery ratio with respect to Hb after 0 days (No feces, 62 h at 37° C.): 81%; recovery ratio of hemoglobin in the sample: further improved
2 | OC[C@H]1O[C@H](O[C@H]2O[C@H](CO)[C@@H](O)[C@H](O)[C@H]2O)[C@H](O)[C@@H](O)[C@@H]1O [Trehalose, trehalose] | 268 | 100 | 133 | 50 | 41 | 15 | 8 | 3 | 254 | 100 | 54 | 21 | 1 | 0 | 0 | 0 | 260 | 100 | 48 | 19 | Hb concentration (Feces 3, 38 h at 37° C.): 0 µg/L; Recovery ratio with respect to Hb after 0 days (Feces 3, 38 h at 37° C.): 0%; Hb concentration (Feces 3, 62 h at 37° C.): 0 µg/L; Recovery ratio with respect to Hb after 0 days (Feces 3, 62 h at 37° C.): 0%; Hb concentration (No feces, 0 h at 37° C.): 280 µg/L; Recovery ratio with respect to Hb after 0 days (No feces, 0 h at 37° C.): 100%; Hb concentration (No feces, 16 h at 37° C.): 241 µg/L; Recovery ratio with respect to Hb after 0 days (No feces, 16 h at 37° C.): 86%; Hb concentration (No feces, 38 h at 37° C.): 228 µg/L; Recovery ratio with respect to Hb after 0 days (No feces, 38 h at 37° C.): 81%; Hb concentration (No feces, 62 h at 37° C.): 219 µg/L; Recovery ratio with respect to Hb after 0 days (No feces, 62 h at 37° C.): 78%; recovery ratio of hemoglobin in the sample: further improved
